Test results as given in BigSolDB 2.1.
Where “and” joins values, the source holds several entries; their conditions need not be identical. Equal entries are not always repeated.

CC(=O)N1CCN(c2ccc(OC[C@@H]3CO[C@@](Cn4ccnc4)(c4ccc(Cl)cc4Cl)O3)cc2)CC1 (racemic)
solubility (mole fraction)
Conditions | in 1,4-dioxane | in NMP | in ethanol | in isopropanol | in propylene glycol | in transcutol
293.2 K | 0.00683 | 0.019 | 0.00275 | 0.000773 | 0.00161 | 0.0116
298.2 K | 0.00833 | 0.023 | 0.00358 | 0.000948 | 0.00219 | 0.0136
303.2 K | 0.00983 | 0.0282 | 0.00434 | 0.00121 | 0.00293 | 0.0159
308.2 K | 0.0121 | 0.0321 | 0.00561 | 0.0018 | 0.00348 | 0.0189
313.2 K | 0.0139 | 0.0376 | 0.00649 | 0.00237 | 0.00507 | 0.0212

Cc1ccccc1C(=O)O
in cyclohexane
Conditions | solubility (mole fraction)
295.45 K | 0.0146
304.95 K | 0.0279
316.65 K | 0.0515
319.4 K | 0.0615
325.2 K | 0.0885
329.35 K | 0.106
333.45 K | 0.138
338.15 K | 0.185

c1ccc2cc3ccccc3cc2c1
298.15 K
Conditions | solubility (mole fraction)
in 2,2,4-trimethylpentane | 0.00107
in 2-butoxyethanol | 0.00379
in 2-ethoxyethanol | 0.00292
in 2-methoxyethanol | 0.00221
in 2-pentanol | 0.0008
in 2-propoxyethanol | 0.00334
in MTBE | 0.00305
in cyclohexane | 0.00155
in isobutanol | 0.00047
in isopentanol | 0.000727
in isopropanol | 0.000411
in methylcyclohexane | 0.00165
in n-butanol | 0.000801
in n-heptane | 0.00157 and 0.00158
in n-hexane | 0.00127
in n-octane | 0.00184
in n-octanol | 0.00216
in n-pentanol | 0.0011
in n-propanol | 0.000591
in sec-butanol | 0.000585
in tert-amyl alcohol | 0.00079
in tetrahydropyran | 0.0102

C[N+](C)(C)CCOP(=O)([O-])OP(=O)([O-])OC[C@H]1O[C@@H](n2ccc(N)nc2=O)[C@H](O)[C@@H]1O.[Na+]
in water
Conditions | solubility (mole fraction)
278.15 K | 0.0211
281.15 K | 0.0216
285.15 K | 0.0224
289.15 K | 0.0234
293.15 K | 0.0248
298.15 K | 0.0265

CC1(C)S[C@@H]2[C@H](N)C(=O)N2[C@H]1C(=O)O
in water
Conditions | solubility (mole fraction)
274.15 K | 0.000132
278.15 K | 0.000143
283.15 K | 0.000159
289.15 K | 0.000173
293.15 K | 0.000183
298.15 K | 0.000203
303.15 K | 0.000226

CC1=C(/C=C/C(C)=C/C=C/C(C)=C/C=C/C=C(C)/C=C/C=C(C)/C=C/C2=C(C)CCCC2(C)C)C(C)(C)CCC1
293.15 K
Conditions | solubility (mole fraction)
in 1,2-dimethoxyethane | 6.3e-05
in 1-hexene | 0.000187
in 2-butanone | 9.1e-05
in MTBE | 0.000119
in acetone | 1.4e-05
in cyclohexane | 0.000302
in cyclohexanone | 0.00032
in dibutyl ether | 0.000158
in diglyme | 9.6e-05
in n-hexane | 8.9e-05
in n-octanol | 2.79e-05
in tert-amyl methyl ether | 0.00018
in toluene | 0.00109

Nc1ccc(Cl)nn1
in water
Conditions | solubility (mole fraction)
293.65 K | 6.28e-05
296.05 K | 7.6e-05
303.05 K | 0.000133
308.65 K | 0.000197
323.35 K | 0.000556
328.45 K | 0.000747
333.15 K | 0.000936

CO[C@H]1O[C@H](CO)[C@@H](O)[C@H](O)[C@H]1O
in methanol
Conditions | solubility (mole fraction)
293.15 K | 0.00941
298.15 K | 0.0109
303.15 K | 0.0128
308.18 K | 0.015
313.15 K | 0.0175
318.15 K | 0.02

Clc1ccc(-c2c3nc(c(-c4ccc(Cl)cc4)c4ccc([nH]4)c(-c4ccc(Cl)cc4)c4nc(c(-c5ccc(Cl)cc5)c5ccc2[nH]5)C=C4)C=C3)cc1
in ethanol
Conditions | solubility (mole fraction)
293.2 K | 1.27e-06
303.2 K | 1.63e-06
313.2 K | 1.93e-06
323.2 K | 2.25e-06
333.2 K | 2.63e-06

C=CC1=C(C(=O)O)N2C(=O)[C@@H](NC(=O)/C(=N\OCC(=O)O)c3csc(N)n3)[C@H]2SC1
in water
Conditions | solubility (mole fraction)
293.15 K | 1.38e-05
298.15 K | 1.65e-05
303.15 K | 2.01e-05
308.15 K | 2.49e-05
313.15 K | 3.14e-05
323.15 K | 4.74e-05
333.15 K | 7.01e-05

O=c1cc(Cl)[nH]c(=O)[nH]1
Conditions | solubility (mole fraction)
in water, 298.15 K | 0.000603

CCCN1CCCC[C@H]1C(=O)Nc1c(C)cccc1C
in acetone
Conditions | solubility (mole fraction)
278.15 K | 0.00654
283.15 K | 0.00793
288.15 K | 0.0098
293.15 K | 0.012
298.15 K | 0.0148
303.15 K | 0.0184
308.15 K | 0.023
313.15 K | 0.0266
318.15 K | 0.0344

O=c1[nH]cc(I)c(=O)[nH]1
Conditions | solubility (mole fraction)
in water, 298.15 K | 0.000373

O=C(O)c1ccc(-n2nc(-c3ccccc3O)nc2-c2ccccc2O)cc1
298.2 K
Conditions | solubility (mole fraction)
in acetonitrile | 0.00106
in ethanol | 0.0143
in methanol | 0.0119
in propylene glycol | 0.0195

Cc1cnc(NC(=O)C2=C(O)c3ccccc3S(=O)(=O)N2C)s1
solubility (mole fraction)
Conditions | 293.15 K | 298.15 K | 303.15 K | 308.15 K | 313.15 K
in methanol | 4.02e-05 | 4.87e-05 and 3.93e-05 | 5.88e-05 | 7.04e-05 | 8.46e-05
in water | – | 4.23e-06 | – | – | –

NCCC(=O)N[C@@H](Cc1cnc[nH]1)C(=O)O
in water
Conditions | solubility (mole fraction)
288.15 K | 0.0217
293.15 K | 0.0224
298.15 K | 0.0236
303.15 K | 0.0249
308.15 K | 0.0265
313.15 K | 0.0287
318.15 K | 0.0301
323.15 K | 0.0324

CCCCCC
in water
Conditions | solubility (mole fraction)
280.8 K | 3.1e-06
295.5 K | 2.7e-06

O=c1ccc2ccccc2o1
in water
Conditions | solubility (mole fraction)
298.15 K | 0.000235
303.15 K | 0.000319
308.15 K | 0.000388
313.15 K | 0.000439

CC1(C)S[C@@H]2[C@H](NC(=O)COc3ccccc3)C(=O)N2[C@H]1C(=O)[O-].[K+]
in ethanol
Conditions | solubility (mole fraction)
278.15 K | 0.00047
283.15 K | 0.000485
293.15 K | 0.000866
298.15 K | 0.00117
303.15 K | 0.00207
308.15 K | 0.0029
313.15 K | 0.00428

O=c1[nH]cc(Cl)c(=O)[nH]1
Conditions | solubility (mole fraction)
in water, 298.15 K | 0.000308

COc1ccc2c(c1)c(CC(=O)O)c(C)n2C(=O)c1ccc(Cl)cc1
in acetone
Conditions | solubility (mole fraction)
293 K | 0.0183
298 K | 0.0208
303 K | 0.0236
308 K | 0.0273
313 K | 0.0316
318 K | 0.0365

F[P-](F)(F)(F)(F)F.F[P-](F)(F)(F)(F)F.c1cc[n+](CCCCCC[n+]2ccccc2)cc1
solubility (mole fraction)
Conditions | 288.15 K | 288.25 K | 293.15 K | 294.85 K | 298.15 K | 299.15 K | 303.15 K | 303.55 K | 308.25 K
in acetone | 0.00399 | – | 0.00402 | – | 0.00409 | – | 0.00431 | – | –
in water | – | 2.7e-05 | – | 4.2e-05 | – | 5.4e-05 | – | 7e-05 | 9e-05
